These results are taken from patent publication US20240124418A1 (BioTheryX, Inc., priority 2020, published 2024).

The target in one experiment is T1, PDE4B (Homo sapiens, UniProt Q07343).
T1 construct: endogenous in cells; host or cells: A549
Nature of the experiment: Protein degradation assay, western blot, PDE4B in A549 cells. It counts as cell-based. The note with it: 24 h treatment, 'as high as about' = upper value for the group, read-out: PDE4B degradation relative to DMSO. As to the method: Example B2. Protein Degradation Assay
A549 cells were grown in RPMI 1640 media supplemented with 10% fetal bovine serum, streptomycin, and penicillin. The cells were plated in 6-well plates at 300,000 cells/well in the growth media. After overnight incubation, the cells were treated with DMSO (control) or a compound at predetermined concentrations (e.g., 10 nM, 100 nM, 1 μM, 3 μM, or 10 μM) for 24 h at 37° C. under 5% CO2. Whole cell extracts were prepared using an immunoprecipitation (IP) lysis buffer. The cells were washed once in PBS, and the cell pellets were resuspended in the IP lysis buffer and incubated for 15 min on ice. Cells debris was removed by centrifugation and the cleared whole cell lysates were transferred to new tubes for further analysis.
For a western blot analysis, the whole cell protein extracts were separated on 4-12% SDS-polyacrylamide gels, transferred to nitrocellulose, and probed with primary antibodies. Membranes were subsequently washed and probed with IRDYE® secondary antibodies. The signals were detected using an ODYSSEY® Imaging System. The antibodies used in the assay included anti-PDE4B antibody; anti-PDE4D antibodies (top, bottom, and short isoform); β-actin mouse monoclonal antibody; IRDYE® 680RD goat anti-rabbit antibody; and IRDYE® 800CW goat anti-mouse antibody. The compounds provided herein are PDE4 protein degraders.
Background: In western blotting, separated proteins are transferred to a membrane and probed.

In the next experiment the test system is TNF-α. Briefly: Cell-based TNF-α inhibition assay (LPS-induced PBMCs, Meso Scale). Conditions: PBMC, PBMCs pretreated 1 h, LPS 100 ng/mL 18-24 h, percentage of stimulated DMSO control; for inhibition at 0.1 µM: compound concentration 0.1 μM; for inhibition at 1 µM: compound concentration 1 μM. In outline:
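Thawed primary PBMCs (200,000 cells/well, RPMI 1640 with 10% FBS) were pretreated with compound for 1 h, then stimulated with 100 ng/mL LPS for 18–24 h. Supernatant TNF-α was measured by Meso Scale, and activity was expressed as percent inhibition relative to the stimulated DMSO control.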

A value given as a limit tells only on which side of the number the result lay.

T1 sequence (Q07343 whole entry): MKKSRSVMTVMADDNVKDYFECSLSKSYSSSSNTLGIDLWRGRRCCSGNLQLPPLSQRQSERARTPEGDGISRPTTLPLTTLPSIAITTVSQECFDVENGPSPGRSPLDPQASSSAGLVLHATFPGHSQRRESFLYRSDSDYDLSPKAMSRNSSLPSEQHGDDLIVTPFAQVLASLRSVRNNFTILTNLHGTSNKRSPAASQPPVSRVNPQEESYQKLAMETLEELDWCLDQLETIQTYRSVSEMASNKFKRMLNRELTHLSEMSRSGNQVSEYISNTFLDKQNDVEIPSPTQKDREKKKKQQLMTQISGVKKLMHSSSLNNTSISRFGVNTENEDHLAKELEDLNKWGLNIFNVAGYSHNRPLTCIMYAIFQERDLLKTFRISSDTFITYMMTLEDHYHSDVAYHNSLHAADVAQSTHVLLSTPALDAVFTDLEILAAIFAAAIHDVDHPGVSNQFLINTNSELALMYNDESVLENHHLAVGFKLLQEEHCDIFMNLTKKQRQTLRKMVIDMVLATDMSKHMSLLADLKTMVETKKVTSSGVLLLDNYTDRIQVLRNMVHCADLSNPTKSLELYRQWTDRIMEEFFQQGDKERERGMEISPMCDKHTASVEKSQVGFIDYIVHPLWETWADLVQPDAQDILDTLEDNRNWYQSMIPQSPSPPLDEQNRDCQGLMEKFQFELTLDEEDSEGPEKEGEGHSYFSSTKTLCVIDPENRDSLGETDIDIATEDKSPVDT

Consider `CCOc1cc([C@@H](CS(C)(=O)=O)N2C(=O)c3cccc(NC(=O)CCCCCCCCCCCNc4cccc5c4C(=O)N(C4CCC(=O)NC4=O)C5=O)c3C2=O)ccc1OC` (stereo partly drawn) [Compound A6, 12-((2-(2,6-Dioxopiperidin-3-yl)-1,3-dioxoisoindolin-4-yl)amino)-N-(2-((S)-1-(3-ethoxy-4-methoxyphenyl)-2-(methylsulfonyl)ethyl)-1,3-dioxoisoindolin-4-yl)dodecanamide], for which, on PDE4B, the Dmax was no more than 70%.
As usually defined, the inhibition is the percentage by which the read-out fell short of the control. Take `CCOc1cc([C@@H](CS(C)(=O)=O)N2C(=O)c3cccc(NC(=O)CCCc4ccc(CCNCc5ccc(OCc6scc7c6CN(C6CCC(=O)NC6=O)C7=O)cc5)cc4)c3C2=O)ccc1OC` (stereo partly drawn) [Compound A42, 4-[4-(2-{[(4-{[5-(2,6-Dioxopiperidin-3-yl)-4-oxo-4H,5H,6H-thieno[3,4-c]pyrrol-1-yl]methoxy}phenyl)methyl]amino}ethyl)phenyl]-N-{2-[(1S)-1-(3-ethoxy-4-methoxyphenyl)-2-methanesulfonylethyl]-1,3-dioxo-2,3-dihydro-1H-isoindol-4-yl}butanamide]: in the experiment on TNF-α, the inhibition at 0.1 µM was no less than 60% and the inhibition at 1 µM was no less than 60%. The Dmax at PDE4B was no more than 70%.
`CCOc1cc([C@@H](CS(C)(=O)=O)N2C(=O)c3cccc(NC(=O)CCCCCCCCN4CCC(C#Cc5cc6c(cc5F)C(=O)N(C5CCC(=O)NC5=O)C6)CC4)c3C2=O)ccc1OC` (stereo partly drawn) [Compound A20, 9-(4-{2-[2-(2,6-Dioxopiperidin-3-yl)-6-fluoro-1-oxo-2,3-dihydro-1H-isoindol-5-yl]ethynyl}piperidin-1-yl)-N-{2-[(1S)-1-(3-ethoxy-4-methoxyphenyl)-2-methanesulfonylethyl]-1,3-dioxo-2,3-dihydro-1H-isoindol-4-yl}nonanamide]: in the experiment on TNF-α, the inhibition at 0.1 µM was no less than 60% and the inhibition at 1 µM is no less than 60%. The Dmax at PDE4B is no more than 70%.
For the compound `CCOc1cc([C@@H](CS(C)(=O)=O)N2C(=O)c3cccc(NC(=O)CCCCCCCCC(=O)N[C@H](C(=O)N4C[C@H](O)C[C@H]4C(=O)NCc4ccc(-c5scnc5C)cc4)C(C)(C)C)c3C2=O)ccc1OC` [Compound A60, N^1-(2-((S)-1-(3-Ethoxy-4-methoxyphenyl)-2-(methylsulfonyl)ethyl)-1,3-dioxoisoindolin-4-yl)-N^10—((S)-1-((2S,4R)-4-hydroxy-2-((4-(4-methylthiazol-5-yl)benzyl)-carbamoyl)pyrrolidin-1-yl)-3,3-dimethyl-1-oxobutan-2-yl)decanediamide], the Dmax at PDE4B is no more than 70%.
Consider `O=C1CCC(N2C(=O)c3cccc(NCCCCCCCOc4cc(C(=O)Nc5c(Cl)cncc5Cl)ccc4OC(F)F)c3C2=O)C(=O)N1` (stereo not drawn) [Compound B6, N-(3,5-Dichloropyridin-4-yl)-4-(difluoromethoxy)-3-((7-((2-(2,6-dioxopiperidin-3-yl)-1,3-dioxoisoindolin-4-yl)amino)heptyl)oxy)benzamide], for which the Dmax at PDE4B was no more than 70%.
As for `CCOc1cc([C@@H](CS(C)(=O)=O)N2C(=O)c3cccc(NC(=O)COCCOCCOCCOCCNc4cccc5c4C(=O)N(C4CCC(=O)NC4=O)C5=O)c3C2=O)ccc1OC` (stereo partly drawn) [Compound A4, 14-((2-(2,6-Dioxopiperidin-3-yl)-1,3-dioxoisoindolin-4-yl)amino)-N-(2-((S)-1-(3-ethoxy-4-methoxyphenyl)-2-(methylsulfonyl)ethyl)-1,3-dioxoisoindolin-4-yl)-3,6,9,12-tetraoxatetradecan-1-amide], in the experiment with TNF-α, the inhibition at 0.1 µM was no less than 60%. Further, the Dmax on PDE4B is no more than 70%.
`CCOc1cc([C@@H](CS(C)(=O)=O)N2C(=O)c3cc(CCCCCCCCCCCCN4CCC(c5cc(F)cc6c5CN(C5CCC(=O)NC5=O)C6=O)CC4)cc(NC(C)=O)c3C2=O)ccc1OC` (stereo partly drawn) [Compound A14, N-(6-(12-(4-(2-(2,6-Dioxopiperidin-3-yl)-6-fluoro-1-oxoisoindolin-4-yl)piperidin-1-yl)dodecyl)-2-((S)-1-(3-ethoxy-4-methoxyphenyl)-2-(methylsulfonyl)ethyl)-1,3-dioxoisoindolin-4-yl)acetamide]: the Dmax at PDE4B is no more than 70%.
Same read-out and setting: the same measure for `O=C1CCC(N2Cc3c(cc(F)cc3C3CCN(CCCCCCCCCCCCOc4cc(C(=O)Nc5c(Cl)cncc5Cl)ccc4OC(F)F)CC3)C2=O)C(=O)N1` (stereo not drawn) [Compound B7, N-(3,5-Dichloropyridin-4-yl)-4-(difluoromethoxy)-3-((12-(4-(2-(2,6-dioxo-piperidin-3-yl)-6-fluoro-1-oxoisoindolin-4-yl)piperidin-1-yl)dodecyl)oxy)benzamide]: no more than 70%; for `Cc1ncsc1-c1ccc(CNC(=O)[C@@H]2C[C@@H](O)CN2C(=O)[C@@H](NC(=O)CCCCCCCCOc2cc(C(=O)Nc3c(Cl)cncc3Cl)ccc2OC(F)F)C(C)(C)C)cc1` [Compound B20, (2S,4R)-1-((S)-2-(9-(5-((3,5-Dichloropyridin-4-yl)carbamoyl)-2-(difluoromethoxy)phenoxy)nonanamido)-3,3-dimethylbutanoyl)-4-hydroxy-N-(4-(4-methylthiazol-5-yl)benzyl)pyrrolidine-2-carboxamide]: no more than 70%.
For `O=C1CCC(N2Cc3c(C#CC4CCN(C(=O)CCCCOc5cc(C(=O)Nc6c(Cl)cncc6Cl)ccc5OC(F)F)CC4)cccc3C2=O)C(=O)N1` (stereo not drawn) [Compound B2, N-(3,5-Dichloropyridin-4-yl)-4-(difluoromethoxy)-3-((5-(4-((2-(2,6-dioxopiperidin-3-yl)-1-oxoisoindolin-4-yl)ethynyl)piperidin-1-yl)-5-oxopentyl)oxy)benzamide], the Dmax on PDE4B is no more than 70%.
The same measure, in the same setting: the result for `O=C1CCC(N2Cc3cc(C4CCN(CCCCCCCOc5cc(C(=O)Nc6c(Cl)cncc6Cl)ccc5OC(F)F)CC4)c(F)cc3C2=O)C(=O)N1` (stereo not drawn) [Compound B3, N-(3,5-Dichloropyridin-4-yl)-4-(difluoromethoxy)-3-((7-(4-(2-(2,6-dioxopiperidin-3-yl)-6-fluoro-1-oxoisoindolin-5-yl)piperidin-1-yl)heptyl)oxy)benzamide] reads no more than 70%; that for `CCOc1cc([C@@H](CS(C)(=O)=O)N2C(=O)c3cccc(NC(=O)CCCCCCCCNCc4ccc(OCc5scc6c5CN(C5CCC(=O)NC5=O)C6=O)cc4)c3C2=O)ccc1OC` (stereo partly drawn) [Compound A12, 9-((4-((5-(2,6-Dioxopiperidin-3-yl)-4-oxo-5,6-dihydro-4H-thieno[3,4-c]pyrrol-1-yl)methoxy)benzyl)amino)-N-(2-((S)-1-(3-ethoxy-4-methoxyphenyl)-2-(methylsulfonyl)ethyl)-1,3-dioxoisoindolin-4-yl)nonanamide], no more than 70%; that for `Cc1ncsc1-c1ccc(CNC(=O)[C@@H]2C[C@@H](O)CN2C(=O)[C@@H](NC(=O)CCCCCCCCCCOc2cc(C(=O)Nc3c(Cl)cncc3Cl)ccc2OC(F)F)C(C)(C)C)cc1` [Compound B21, (2S,4R)-1-((S)-2-(11-(5-((3,5-dichloropyridin-4-yl)carbamoyl)-2-(difluoromethoxy)phenoxy)undecanamido)-3,3-dimethylbutanoyl)-4-hydroxy-N-(4-(4-methyl-thiazol-5-yl)benzyl)pyrrolidine-2-carboxamide], no more than 70%.
